Reference: ChEMBL document CHEMBL3988442, “University of Dundee, Small-Polar-MMV Screening Library” (2021)
Values joined by “and” are separate entries in the source; they are usually repeats but may differ in a detail not shown here. Equal values may be shown once.

What was measured:
[1] = In vitro enzyme assay to detect hydrolysis of chlorophenol red-beta-D-[…] directly proportional to the number of Toxoplasma stably expressing beta-galactosidase; type: functional, organism-based, Toxoplasma gondii; conditions: for IC50: Toxoplasma gondii
[2] = microbe, parasite or virus in culture; conditions: Mycobacterium tuberculosis, 96 h, read-out: pIC50 (converted)
[3] = microbe, parasite or virus in culture; conditions: Mycobacterium tuberculosis, 72 h, read-out: pIC50 (converted)

Row | Structure (SMILES) | IC50 [1] | IC50 [2] | pIC50 [1] | IC50 [3]
1 | COC(=O)c1cnc(F)cn1 | > 50.1 µM | – | – | –
2 | Cc1cc(C)n(-c2nc(NCCCO)c3c4c(sc3n2)CCCC4)n1 | – | 41.8 µM | 5.989 and 5.533 | 45.4 µM
3 | Cc1ccc(C(=O)NCCCNCCCN(C)C)cn1 | > 50.1 µM | – | – | –
4 | Cc1nnc2n1N=C(c1ccccc1)CS2 | > 50.1 µM | – | – | –
5 | CCNC1CCS(=O)(=O)C1 (centres undefined) | > 50.1 µM | – | – | –
6 | CN1CCCN(C(=O)COc2ccc(Br)cc2)CC1 | > 50.1 µM | – | – | –
7 | CN[C@@H]1COc2ccccc2[C@H](O)C1 | > 50.1 µM | – | – | –
8 | Cc1cc(NC(=O)C(C)C)n(-c2nc(C)c(C)c(=O)[nH]2)n1 | 1.51 µM | 9.46 µM | 5.713 | 4.11 µM
9 | Cc1cc(C(=O)N2CCN(c3nc4c(C(C)C)cccc4s3)CC2)on1 | > 25.1 µM | 38.5 µM | – | 21.3 µM
10 | CCn1cc(CN(C)S(=O)(=O)c2ccc(C(C)C)cc2)cn1 | > 50.1 µM | 48.5 µM | – | 46.8 µM
11 | C=C/C=c1\c(=C/C)oc2c(NCc3ccccc3)nc(C)nc12 | 37.2 µM | 12.1 µM | – | 20.6 µM
12 | C=C/C=c1\c(=C/C)oc2c(NCc3ccccc3)nc(CC)nc12 | 37.5 µM | 19.1 µM | – | 22 µM
13 | CCCn1c(N2CCCC(C)C2)nc2c(C)nn(C)c2c1=O (centres undefined) | 22.2 µM | > 50.1 µM | 4.506 | –
14 | CCNc1ncc2c(n1)CN(c1ccc(CC)cc1)C2=O | > 50.1 µM | > 50.1 µM | – | –
15 | CCCc1nc(NCCc2ccccc2)c2c(n1)c(C)nn2CC | 9.84 µM | 38.5 µM | 4.958 | 48.8 µM
16 | CCn1nc(C)c2nc(C(C)C)nc(NCC(C)C)c21 | 25.4 µM | 49.2 µM | – | 47.1 µM
17 | CC(C)c1ccc(C(CN)N2CCc3sccc3C2)cc1 (centres undefined) | 13.4 µM | 24.8 µM | 5.076 | 20.4 µM
18 | NC(CC1CCCC1)c1ccc(Oc2ccccc2)cc1 (centres undefined) | 5.29 µM | 24.2 µM | – | 27.4 µM
19 | Brc1ccc(NCc2ccc(Cn3ccnc3)cc2)nc1 | 29.6 µM | 4.63 µM | – | 3.73 µM
20 | CCc1nccn1CCNC1CCN(c2nc3ccc(Cl)cc3s2)CC1 | 8.99 µM | 18.4 µM | – | 34 µM
21 | Fc1cccc(-c2cccc(N3CCC(NC4CCCOC4)CC3)c2)c1 (centres undefined) | 26.2 µM | 30.8 µM | – | 27.4 µM
22 | Clc1cccc(-c2cccc(N3CCC(NC4CCOCC4)CC3)c2)c1 | 14.4 µM | 34.9 µM | – | 29.7 µM

Row | Structure (SMILES) | IC50 [1] | IC50 [2] | pIC50 [1] | IC50 [3]
23 | O=C1CCCCN1c1ccc(S(=O)(=O)NC2CC2)cc1 | > 50.1 µM | – | – | –
24 | Cc1ccc(NC(=O)CCCNC(=O)C2CC2)cc1 | > 50.1 µM | – | – | –
25 | COc1cccc(N2CCNCC2C)c1 (centres undefined) | > 50.1 µM | > 501 µM | – | > 501 µM
26 | O=C(CCNC(=O)c1ccccc1F)Nc1nccs1 | > 50.1 µM | – | – | –
27 | O=C1NCCN(C(=O)c2ccc(Br)o2)C1c1cccs1 (centres undefined) | > 50.1 µM | – | – | –
28 | CCN(CC)Cc1nnnn1-c1ccccc1 | > 50.1 µM | – | – | –
29 | Cc1ccc(C(=O)NCCN2CCOCC2)c(C)c1 | > 50.1 µM | – | – | –
30 | Cn1nnnc1SCCNC(=O)c1cc(Cl)ccc1F | > 50.1 µM | – | – | –
31 | CCN1CCc2nc(NC(=O)c3ccncc3)sc2C1 | > 50.1 µM | – | – | –
32 | Fc1ccccc1CN1CCn2ccnc2C1 | > 50.1 µM | – | – | –
33 | CC(C)Cn1cc(NC(=O)N2CCC(O)C2)cn1 (centres undefined) | > 50.1 µM | – | – | –
34 | C1CN[C@@H]2CNC[C@@H]2C1 | > 50.1 µM | – | – | –
35 | Cc1cncc(C(=O)N2CCCC2C(C)(C)O)c1 (centres undefined) | > 50.1 µM | – | – | –
36 | Cn1cc(CN(C(=O)c2ccc(N)nc2)C2CC2)cn1 | > 50.1 µM | – | – | –
37 | CC(C)(CO)C(N)c1ccccc1 (centres undefined) | > 50.1 µM | – | – | –
38 | CC(=O)c1cccc(OCC(=O)Nc2cc(C)on2)c1 | > 50.1 µM | – | – | –
39 | CCC(=O)NC1CCCc2nc(N(C)C)ncc21 (centres undefined) | > 50.1 µM | – | – | –
40 | CCC(=O)c1cccc(OC)n1 | > 50.1 µM | – | – | –
41 | Nc1nnc(SCc2ccc(Cl)s2)[nH]1 | > 50.1 µM | 313 µM | – | 307 µM
42 | NCCN1CCC(C(N)=O)CC1 | > 50.1 µM | – | – | –
43 | O=C(NC1CCCC1)c1cnccn1 | > 50.1 µM | – | – | –
44 | O=C(Nc1ccc(Br)cn1)C1CCCNC1 (centres undefined) | > 50.1 µM | – | – | –

Row | Structure (SMILES) | IC50 [1] | IC50 [2] | pIC50 [1] | IC50 [3]
45 | Cc1ncc(C(=O)N2C[C@@H]3CCCN[C@@H]3C2)c(C)n1 | > 50.1 µM | – | – | –
46 | CC(C)(N)CN1CCN(c2cccc(Cl)c2)CC1 | > 50.1 µM | 474 µM | – | 98.6 µM
47 | Cc1ccc(CNC(=O)C2CCCCC(=O)N2)o1 (centres undefined) | > 50.1 µM | – | – | –
48 | CCn1nc(-c2ccc(F)cc2)oc1=O | > 50.1 µM | – | – | –
49 | CC(C)n1ccc(CN2C(=O)CC(C)(C)C2=O)n1 | > 50.1 µM | – | – | –
50 | CC(=O)Nc1ccc(CN2CCCOC(C)C2)cc1 (centres undefined) | > 50.1 µM | – | – | –
51 | O=C(OCCOc1cccnc1)C1CC1 | > 50.1 µM | – | – | –
52 | CCC(CC)(CCO)CNC(=O)c1cncc(C)c1 | > 50.1 µM | – | – | –
53 | CC(C)CNC(=O)CSc1n[nH]c(-c2ccccn2)n1 | > 50.1 µM | – | – | –
54 | Nc1cccnc1NCc1cccnc1 | > 50.1 µM | – | – | –
55 | Cc1ccc(C(=O)N2CCN(C(C)C(N)=O)CC2)s1 (centres undefined) | > 50.1 µM | – | – | –
56 | CNc1cc(-c2cccc(OC)c2OC)nc(N)n1 | > 50.1 µM | – | – | –
57 | OCCNc1nc2ccccc2s1 | > 50.1 µM | – | – | –
58 | CNc1cc(-c2cccc(OC)c2)[nH]n1 | > 50.1 µM | – | – | –
59 | O=C(CC1CCCC1)NCCc1noc(CO)n1 | > 50.1 µM | – | – | –
60 | CCC(CC)C(O)CNC(=O)NCC1CC1 (centres undefined) | > 50.1 µM | – | – | –
61 | Cc1cncc(C(N)=O)c1 | > 50.1 µM | – | – | –
62 | O=C(NCc1nc(C2CC2)no1)Nc1nncs1 | > 50.1 µM | – | – | –
63 | Nc1ccc(CN2CCN(CCO)CC2)cn1 | > 50.1 µM | – | – | –
64 | COc1ccc(CC#N)cc1S(C)(=O)=O | > 50.1 µM | – | – | –
